Row | melting point | SMILES
1 | 280 to 290 °C (dec.) | CCOC(=O)c1c(I)c(NC(C)=O)c(I)c(NC(C)=O)c1I [NC 8883, Ethyl 3,5-diacetamido-2,4,6-triiodobenzoate]
2 | 269.5 to 270.5 °C (dec.) | CCOC(=O)COC(=O)c1c(I)c(NC(C)=O)c(I)c(NC(C)=O)c1I [NC 12901, Ethyl (3,5-diacetamido-2,4,6-triiodobenzoyloxy)acetate]
